Patent publication US20110002855A1 (NEUROGEN CORPORATION, priority 2007, published 2011)

Molecular target: T1, chimeric human H3 receptor (Homo sapiens, UniProt Q9Y5N1)
T1 construct: made in house; host or cells: Sf9 insect cells (baculovirus); P2 membrane preparation
Assay: Chimeric human H3 receptor screening GTP binding assay at 4 μM (Example 8)
Format: biochemical
Conditions: test compound 4 μM, 1 μM histamine, P2 membranes of Sf9 cells; read-out: % (percent inhibition of agonist-induced GTP-gammaS binding to H3)
Protocol: This Example illustrates a representative screening assay for evaluating inhibition of histamine-stimulated GTP-gamma^35S binding. Such GTP binding activity can be used to identify H3 antagonists and inverse agonists. A compound analyzed in this assay is referred to herein as a “test compound,” and the initial identification of antagonists and inverse agonists is performed using a test compound concentration of 4 μM.
Four independent baculoviral stocks (one directing the expression of the chimeric human H3 receptor and three directing the expression of each of the three subunits of a heterotrimeric G-protein) are used to infect a culture of Sf9 cells as described above. P2 membranes are prepared as described above, and are resuspended by Dounce homogenization (tight pestle) in GTP binding assay buffer (50 mM Tris pH 7.4, 120 mM NaCl, 5 mM MgCl2, 2 mM EGTA, 1 mg/ml BSA, 0.2 mg/ml bacitracin, 0.02 mg/ml aprotinin, 0.01 mg/ml saponin, 10 μM GDP) and added to assay tubes at a concentration of 35 μg protein/reaction tube. Non-radiolabeled test compounds are added to separate reactions at a concentration of 4 μM along with 1 μM histamine (agonist). Reactions are initiated by the addition of 125 pM GTP-gamma^35S with a final assay volume of 0.20 ml.
After a 60-min incubation at room temperature, reactions are terminated by vacuum filtration over GF/C filters (pre-soaked in 50 mM Tris pH 7.4, 120 mM NaCl plus 0.1% BSA) followed by washing with ice-cold buffer (50 mM Tris pH 7.4, 120 mM NaCl). The amount of receptor-bound (and thereby membrane-bound) GTP-gamma^35S is determined by measuring the bound radioactivity, preferably by liquid scintillation spectrometry of the washed filters. Non-specific binding is determined using 10 uM GTP-gammaS and typically represents less than 5 percent of total binding. After subtraction of non-specific binding, data is expressed as percent inhibition of 1 μM histamine signal.
Neutral antagonists are those test compounds that reduce the histamine-stimulated GTP binding activity towards, but not below, baseline levels. In contrast, in the absence of added histamine, inverse agonists reduce the GTP binding activity of the receptor-containing membranes below baseline. Any test compound that elevates GTP binding activity above baseline in the absence of added histamine in this assay is defined as having agonist activity.

T1 sequence (Q9Y5N1 with tags, fused parts or gaps): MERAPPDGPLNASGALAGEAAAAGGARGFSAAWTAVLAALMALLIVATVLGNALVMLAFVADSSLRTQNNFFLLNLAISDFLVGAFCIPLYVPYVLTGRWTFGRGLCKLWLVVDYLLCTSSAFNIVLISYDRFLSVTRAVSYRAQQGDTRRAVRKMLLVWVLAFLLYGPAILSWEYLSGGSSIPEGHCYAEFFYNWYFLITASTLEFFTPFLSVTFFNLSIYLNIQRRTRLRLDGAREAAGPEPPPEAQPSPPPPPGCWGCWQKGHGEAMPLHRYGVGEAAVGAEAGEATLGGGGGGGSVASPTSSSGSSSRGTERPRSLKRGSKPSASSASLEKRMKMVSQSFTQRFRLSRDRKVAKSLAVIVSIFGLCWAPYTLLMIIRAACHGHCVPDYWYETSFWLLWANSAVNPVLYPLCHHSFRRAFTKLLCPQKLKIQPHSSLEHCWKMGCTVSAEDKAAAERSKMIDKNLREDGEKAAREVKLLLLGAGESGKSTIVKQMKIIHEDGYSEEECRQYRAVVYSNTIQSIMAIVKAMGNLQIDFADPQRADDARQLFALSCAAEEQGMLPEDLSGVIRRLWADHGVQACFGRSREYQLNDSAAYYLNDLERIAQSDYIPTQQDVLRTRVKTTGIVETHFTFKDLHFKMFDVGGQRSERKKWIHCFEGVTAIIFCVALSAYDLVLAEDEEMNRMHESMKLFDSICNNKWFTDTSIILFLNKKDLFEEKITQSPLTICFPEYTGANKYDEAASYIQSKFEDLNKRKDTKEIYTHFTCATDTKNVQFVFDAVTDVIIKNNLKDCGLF

Row | Compound | inhibition at 4 µM
1 | CC1CCCCN1C1CCN(C(=O)CN2CCc3c([nH]c4ccccc34)C2)CC1 (stereo not drawn) [Compound 34, 2-[2-(2-Methyl-1,4′-bipiperidin-1′-yl)-2-oxoethyl]-2,3,4,9-tetrahydro-1H-beta-carboline] | ≥ 90%
2 | C=CCN1CCN(C(=O)CN2CCc3c([nH]c4ccccc34)C2)CC1 [Compound 35, 2-[2-(4-Allylpiperazin-1-yl)-2-oxoethyl]-2,3,4,9-tetrahydro-1H-beta-carboline] | ≥ 90%
3 | CC(C)N1CCCN(C(=O)CN2CCc3c([nH]c4ccccc34)C2)CC1 [Compound 36, 2-[2-(4-Isopropyl-1,4-diazepan-1-yl)-2-oxoethyl]-2,3,4,9-tetrahydro-1H-beta-carboline] | ≥ 90%
4 | O=C(CN1CCc2c([nH]c3ccccc23)C1)N1CCCN(C2CCC2)CC1 [Compound 37, 2-[2-(4-Cyclobutyl-1,4-diazepan-1-yl)-2-oxoethyl]-2,3,4,9-tetrahydro-1H-beta-carboline] | ≥ 90%
5 | CC1CCCC1N1CCN(C(=O)CN2CCc3c([nH]c4ccccc34)C2)CC1 (stereo not drawn) [Compound 38, 2-{2-[4-(2-Methylcyclopentyl)piperazin-l-yl]-2-oxoethyl}-2,3,4,9-tetrahydro-1H-beta-carboline] | ≥ 90%
6 | O=C(CN1CCc2c([nH]c3ccccc23)C1)N1CCC(N2CCCC2)C1 (stereo not drawn) [Compound 39, 2-[2-(1,3′-Bipyrrolidin-1′-yl)-2-oxoethyl]-2,3,4,9-tetrahydro-1H-beta-carboline] | ≥ 90%
7 | O=C(CN1CCc2c([nH]c3ccccc23)C1)N1CCN(C2CCOCC2)CC1 [Compound 40, 2-{2-Oxo-2-[4-(tetrahydro-2H-pyran-4-yl)piperazin-1-yl]ethyl}-2,3,4,9-tetrahydro-1H-beta-carboline] | ≥ 90%
8 | O=C(CN1CCc2c([nH]c3ccccc23)C1)N1CCN(C2CCCCC2)CC1 [Compound 41, 2-[2-(4-Cyclohexylpiperazin-1-yl)-2-oxoethyl]-2,3,4,9-tetrahydro-1H-beta-carboline] | ≥ 90%
9 | CCN1CCN(C(=O)CN2CCc3c([nH]c4ccccc34)C2)CC1 [Compound 42, 2-[2-(4-Ethylpiperazin-1-yl)-2-oxoethyl]-2,3,4,9-tetrahydro-1H-beta-carboline] | ≥ 90%
10 | CN1CCC(N(C)C(=O)CN2CCc3c([nH]c4ccccc34)C2)CC1 [Compound 43] | ≥ 90%
11 | CCCN1CCN(C(=O)CN2CCc3c([nH]c4ccccc34)C2)CC1 [Compound 44, 2-[2-(4-propylpiperazin-1-yl)-2-oxoethyl]-2,3,4,9-tetrahydro-1H-beta-carboline] | ≥ 90%
12 | O=C(CN1CCc2c([nH]c3ccccc23)C1)N1CCN(C2CCCC2)CC1 [Compound 45, 2-[2-(4-Cyclopentylpiperazin-1-yl)-2-oxoethyl]-2,3,4,9-tetrahydro-1H-beta-carboline] | ≥ 90%
13 | CCN(CC)C1CCN(C(=O)CN2CCc3c([nH]c4ccccc34)C2)CC1 [Compound 46, N,N-Diethyl-1-(1,3,4,9-tetrahydro-2H-beta-carbolin-2-ylacetyl)piperidin-4-amine] | ≥ 90%
14 | CCCCN1CCCN(C(=O)CN2CCc3c([nH]c4ccccc34)C2)CC1 [Compound 47, 2-[2-(4-Butyl-1,4-diazepan-1-yl)-2-oxoethyl]-2,3,4,9-tetrahydro-1H-beta-carboline] | ≥ 90%
15 | CCCCN1CCN(C(=O)CN2CCc3c([nH]c4ccccc34)C2)CC1 [Compound 48, 2-[2-(4-Butylpiperazin-1-yl)-2-oxoethyl]-2,3,4,9-tetrahydro-1H-beta-carboline] | ≥ 90%
16 | CCN(CC)C1CCN(C(=O)CN2CCc3c([nH]c4ccccc34)C2)C1 (stereo not drawn) [Compound 49, N,N-Diethyl-1-(1,3,4,9-tetrahydro-2H-beta-carbolin-2-ylacetyl)pyrrolidin-3-amine] | ≥ 90%
17 | CC(C)CN1CCN(C(=O)CN2CCc3c([nH]c4ccccc34)C2)CC1 [Compound 50, 2-[2-(4-Isobutylpiperazin-1-yl)-2-oxoethyl]-2,3,4,9-tetrahydro-1H-beta-carboline] | ≥ 90%
18 | CCCN(CC1CC1)C1CCN(C(=O)CN2CCc3c([nH]c4ccccc34)C2)CC1 [Compound 51, N-(Cyclopropylmethyl)-N-propyl-1-(1,3,4,9-tetrahydro-2H-beta-carbolin-2-ylacetyl)piperidin-4-amine] | ≥ 90%
19 | O=C(CN1CCc2c([nH]c3ccccc23)C1)N1CCC(N2CCCC2)CC1 [Compound 52, 2-[2-Oxo-2-(4-pyrrolidin-1-ylpiperidin-1-yl)ethyl]-2,3,4,9-tetrahydro-1H-beta-carboline] | ≥ 90%
20 | O=C(CN1CCc2c([nH]c3ccccc23)C1)N1CCC(N2CCCCC2)CC1 [Compound 53, 2-[2-(1,4′-Bipiperidin-1′-yl)-2-oxoethyl]-2,3,4,9-tetrahydro-1H-beta-carboline] | ≥ 90%
21 | COCCN(C(=O)CN1CCc2c([nH]c3ccccc23)C1)C1CCN(C)CC1 [Compound 54, N-(2-Methoxyethyl)-N-(1-methylpiperidin-4-yl)-2-(1,3,4,9-tetrahydro-2H-beta-carbolin-2-yl)acetamide] | ≥ 90%
22 | O=C(CN1CCc2c([nH]c3ccccc23)C1)N1CCN(CCCN2CCCC2)CC1 [Compound 55, 2-{2-Oxo-2-[4-(3-pyrrolidin-1-ylpropyl)piperazin-1-yl]ethyl}-2,3,4,9-tetrahydro-1H-beta-carboline] | ≥ 90%
23 | O=C(CN1CCc2c([nH]c3ccccc23)C1)N1CCN(CCN2CCCCC2)CC1 [Compound 56, 2-{2-Oxo-2-[4-(2-piperidin-1-ylethyl)piperazin-1-yl]ethyl}-2,3,4,9-tetrahydro-1H-beta-carboline] | ≥ 90%
24 | O=C(CN1CCc2c([nH]c3ccccc23)C1)N1CCN(CCCN2CCCCC2)CC1 [Compound 57, 2-{2-Oxo-2-[4-(3-piperidin-1-ylpropyl)piperazin-1-yl]ethyl}-2,3,4,9-tetrahydro-1H-beta-carboline] | ≥ 90%
25 | O=C(CN1CCc2c([nH]c3ccccc23)C1)N1CCN(CCN2CCCC2)CC1 [Compound 58, 2-{2-Oxo-2-[4-(2-pyrrolidin-1-ylethyl)piperazin-1-yl]ethyl}-2,3,4,9-tetrahydro-1H-beta-carboline] | ≥ 90%
26 | CC(c1ccccc1)N1CCN(C(=O)CN2CCc3c([nH]c4ccccc34)C2)CC1 (stereo not drawn) [Compound 59, 2-{2-Oxo-2-[4-(1-phenylethyl)piperazin-1-yl]ethyl}-2,3,4,9-tetrahydro-1H-beta-carboline] | ≥ 90%
27 | CCCN(C(=O)CN1CCc2c([nH]c3ccccc23)C1)C1CCN(C)CC1 [Compound 60, N-(1-Methylpiperidin-4-yl)-N-propyl-2-(1,3,4,9-tetrahydro-2H-beta-carbolin-2-yl)acetamide] | ≥ 90%
28 | CN(C)CCCN(C(=O)CN1CCc2c([nH]c3ccccc23)C1)C1CCN(C)CC1 [Compound 61, N-[3-(Dimethylamino)propyl]-N-(1-methylpiperidin-4-yl)-2-(1,3,4,9-tetrahydro-2H-beta-carbolin-2-yl)acetamide] | ≥ 90%
29 | CCN(C(=O)CN1CCc2c([nH]c3ccccc23)C1)C1CCN(C)CC1 [Compound 62, N-(1-Methylpiperidin-4-yl)-N-ethyl-2-(1,3,4,9-tetrahydro-2H-beta-carbolin-2-yl)acetamide] | ≥ 90%
30 | CN(CCN1CCCC1)C(=O)CN1CCc2c([nH]c3ccccc23)C1 [Compound 63] | ≥ 90%
